# Test results from patent publication US7485632B2, “Cephalosporins” (Nabriva Therapeutics Forschungs GmbH, priority 2002, dated 2009).
# Columns and labels:
# Assay type in all cases: cell-based
# Klebsiella pneumoniae = assay: Agar Dilution Test (NCCLS), MIC; conditions: against Klebsiella pneumoniae
# Klebsiella = assay: Agar Dilution Test (NCCLS), MIC; conditions: against Klebsiella
# Pseudomonas aeruginosa = assay: Antibacterial activity
# Streptococcus pneumoniae = assay: Agar Dilution Test (NCCLS), MIC; conditions: against Streptococcus pneumoniae
# [1] = system: Staphylococcus aureus (MSSA); assay: Agar Dilution Test (NCCLS), MIC; conditions: against Staphylococcus aureus (MSSA)
structure (smiles),measurement,setting,value
"CN(/N=C/C1=C(C(=O)O)N2C(=O)[C@@H](NC(=O)/C(=N\OCF)c3nsc(N)n3)C2SC1)C(=N)N[C@H]1CC[C@H](N)CC1 (stereo partly drawn) [Example 1, 3-{(E)[[1-trans-(4-Amino-cyclohexylamino)-iminomethyl]-methylhydrazono]methyl}-7-{[(5-amino-1,2,4-thiadiazol-3-yl)-(Z)-(fluoromethoxyimino)-acetyl]amino}-3-cephem-4-carboxylic acid]",MIC,Klebsiella pneumoniae,~0.0125 µg/mL
same,MIC,Klebsiella,0.0125 to 0.8 µg/mL
same,activity against Pseudomonas aeruginosa,Pseudomonas aeruginosa,shows activtiy
same,MIC,Streptococcus pneumoniae,~0.0125 µg/mL
same,MIC,[1],0.05 to 0.2 µg/mL
